The format of series [1] is physicochemical. The following applies: for Content: calculated as hydroxysafflor yellow A.
Series [2] has as its system acute cerebral ischemia model (MCAO). The class given is in vivo, rat.
For series [3], the system named is acute hypoxia. Kind of series: Acute cerebral anoxia, survival in a closed vessel. Format: in vivo, mouse. As to conditions: Kunming mice. The procedure:
5. Effect on acute cerebral anoxia: A study was carried out using Kunming mice […]. The animals were kept in an environment lacking oxygen. The survival duration was recorded to examine whether resistance to acute hypoxia was increased after animals given the medicine. […] Animals were kept in the container until respiration ceased.

Series [4] has as its system blood viscosity. The class given is in vivo. As to conditions: rabbit. The procedure: 7. Effect on blood viscosity: Rabbit was treated intravenously, once per day, for 5 days. 2 hours after the last dose, blood was taken from heart and anticoagulated, and tested with blood rheometer directly.
Series [5] relates to acute myocardial infarction among rats. Kind of series: Rat acute myocardial infarction model (coronary ligature): arrhythmia ranking, infarcted area, myocardial enzymes. Format: in vivo. The procedure:
Test method • 1. Preparation of rat acute myocardial infarction model: Intraperitoneal anesthesia was performed with 3% sodium pentobarbital, 45 mg/kg. Right femoral artery and vein catheter were inserted for blood pressure monitoring and intravenous administration, respectively. Artificial mechanical ventilation was given through tracheal intubation at a rate of 60 times/min, and with a ventilation volume of about 10 ml/kg. Electrocardiogram (ECG) was recorded by placing needle electrode in limbs. A longitudinal skin incision was made approximately 0.5 cm to left sternal border, followed by blunt dissection of the subcutaneous tissue. The pectoralis major, pectoralis minor, and the intercostal muscle were dissected, ligated and cut with scissors successively. The chest was open from the fourth intercostal space along the left sternal border where apical beat is most significant. Cut the pericardium open with scissors, and clamp the pericardium to bilateral chest wall with hemostatic forceps, to form a pericardial bed and expose vessels on the surface of the left ventricle. 6-0 silk suture was threaded through superficial layer of myocardium (i.e. the anterior descending coronary artery) about 2 mm under the left auricle. […] Arrhythmia ranking: The severity of arrhythmia which occurred within 30 min after coronary ligature was scored. • 3. Myocardial enzyme test: At the end of test, 2 ml of venous blood was taken, and centrifuged under 4° C. and 4000/min for 5 min. The supernatant was taken for myocardial enzyme test. Test items: LDH, AKP, CK. • 4. Measurement of myocardial infarcted area: 4 h after coronary ligature, puncture was performed to the anterior wall of the left ventricle, and carbon ink was injected. Then the animal was sacrificed, and the heart was removed and cleaned with normal saline. Blood and non-myocardial tissue such as vessel and fat were removed. Moisture was dried with absorbent paper. Then the heart was weighed. The heart was cut into sections of about 2 mm from cardiac apex to the base of heart parallel. The perfusion area (perfused with ink) and area at high risk of ischemia (without ink perfusion). […] The nonobstructive heart muscle stained was cut off with scissors, and the non-stained infarcted heart muscle was weighed, to calculate percentage of infarcted heart muscle in the area of heart muscle at risk by weight (weight of infarction area/weight of area at risk*100%). Statistical Analysis:
All the test data was expressed as mean±standard deviation, statistical test was done with analysis of variance (ANOVA), and the difference was considered significant if P<0.05.

The subject of series [6] is platelet adhered to the silk. Format: in vivo, rat. How it is done: (§1) 6. Anti-platelet aggregation: The study included two stages, instrument testing and in vivo test. […] 4 ml of blood was taken from heart 2 hours after the last dose. The blood was centrifuged under a low speed to obtain platelet-rich […]; and centrifuged under a high speed to obtain […] lacking platelet. Adenosine diphosphate (ADP) and platelet-activating factor (PAF) were chosen as the platelet aggregation inducing agent. And platelet aggregometer was used for testing. […] 2) In vivo method: An arteriovenous short was created with latex tubing in rats. There was surgical silk mounted in the latex tubing. Using characteristics of platelet adhesion, the short was opened to allow blood to flow trans-arteriovenously through the latex tubing. And then silk was removed and weighed. The weight of platelet adhered to the silk was calculated by subtracting the dry weight.

In series [7] the test system is permeability of cerebral vessel. The class given is in vivo, rat. How it is done:
3. Effect on vasopermeability in rats: Rats were injected intravenously, once per day, for 7 days. After the last dose, rats were anesthetized, injected intravenously with Evans blue 50 mg/kg. After 5 minutes, bilateral common carotid arteries were ligated. The animals were sacrificed by decapitation after 3 hours. The brain was removed, weighed and immersed in formamide solution. It was placed in an incubator at 45° C. for 72 h. During this period, Evans blue in the cerebral vessel could be leached out into formamide solution. Testing the amount of Evans blue leached out into the formamide solution with spectrophotometer could indicate permeability of cerebral vessel.

The test system of series [8] is platelet aggregation induced by ADP. Kind of series: Anti-platelet aggregation, instrument testing (platelet aggregometer), ADP. Format: in vivo. As to conditions: rabbit, intravenous once per day for 5 days, blood 2 hours after last dose, three doses. The procedure: as §1
Series [9] relates to platelet aggregation induced by PAF. Kind of series: Anti-platelet aggregation, instrument testing (platelet aggregometer), PAF. As to conditions: rabbit, intravenous once per day for 5 days, blood 2 hours after last dose, three doses. The class given is in vivo. The procedure:
as §1

The test system of series [10] is cerebral blood flow. The class given is in vivo, dog. An excerpt:
4. Effect on cerebral blood flow of dog: Beagles were used as the study animal. After the dog was anesthetized with sodium pentobarbital, external jugular vein, internal jugular vein and vertebral artery were isolated surgically. The external jugular vein was ligated. Flow probes were placed in internal jugular vein and vertebral artery. Two times of the total blood flow recorded by both probes represented blood supply of the whole brain. At the end of the study, the brain was removed and weighed to calculate blood flow per 100 g of brain tissue.

Series [11] has as its system coronary ring from beagles (cardiac vascular ring). Details: species or system dog. The text has this: (§2) 1. Selectivity of isolated heart and cerebral vessel from dogs: During this study, Willis arteries and coronary ring from beagles were mounted on ex vivo vascular measuring device. Adjust the tension sensor, and add 10-6 mol/L phenylephrine into the liquid in bath cup, so as to maintain vascular tension. […] Calculate vasoconstriction or vasodilation change value.

In series [12] the test system is Willis arteries from beagles (cerebral vascular ring). Details: species or system dog.
Source text: as §2

[13] abbreviates: serum, rats, 40 mg/kg intravenously, end of test.
Setting [14] is: beagles, intravenous, medium and high dose.
Where [15] appears, read: 10-6 mol/L phenylephrine tension, 10 mg/ml added every 5 min, 4-5 times.

Several values for one entry are separate records, joined by “and”; a condition that tells them apart may be missing. Identical values can stand only once. Like-named read-outs stand apart in the source and are kept apart here.

For the compound `O=C(/C=C/c1ccc(O)cc1)C1=C(O)C(O)(C2OC(CO)C(O)C(O)C2O)C([O][Mg][O]C2=C(C3OC(CO)C(O)C(O)C3O)C(=O)C(C(=O)/C=C/c3ccc(O)cc3)=C(O)C2(O)C2OC(CO)C(O)C(O)C2O)=C(C2OC(CO)C(O)C(O)C2O)C1=O` (centres unmarked) [Magnesium hydroxysafflor yellow A], the Total purity in series [1] (Accelerated 0 month) amounted to 1.0%; in [1] (Accelerated 1 month), 1.3%; in [1] (Accelerated 2 months), 1.8%; in series [1] (Accelerated 3 months), 2.4%. In addition, the Content in series [1] (Accelerated 0 month) was 97.4%; in [1] (Accelerated 1 month), 97.0%; in series [1] (Accelerated 2 months) it was 96.4%; in [1] (Accelerated 3 months), 95.8%.

Take `COCCOC(=O)C1=C(C)NC(C)=C(C(=O)OC(C)C)C1c1cccc([N+](=O)[O-])c1` (centres unmarked) [nimodipine, reference compound]: the “Area of cerebral infarction” value in [2] (SD rats, positive group, 24 h after MCAO) was 15.7%.

In the case of Potassium hydroxysafflor yellow A, the Survival duration in [3] (high dose) was found to be 36 min; in series [3] (low dose), 36 min; in series [3] (medium dose), 37 min. For the same compound, the “Blood viscosity effect compared with nimodipine positive control (in words)” value in series [4] (high dose groups) is reported as “superior to the positive control group”. For the same compound, in [4] (intravenous once per day for 5 days, compared to solvent control group), the “Blood viscosity, low shear, medium shear and high shear (in words)” value is “decreased as dose increased”. For the same compound, the “Extent of myocardial infarction compared to hydroxysafflor yellow for injection (in words)” value in [5] (rats) is on record as “better efficacy in terms of reducing the extent of myocardial infarction”. Further, in series [5] (rats, 40 mg/kg intravenously, 4 h after coronary ligature, NBT staining, mean±SD), the “Infarction area” value was found to be 0.10 ± 0.02 g. Besides, the “Infarction rate (%)” value in [5] (rats, 40 mg/kg intravenously, weight of infarction area/weight of area at risk*100%) came out at 26 ± 9 %. The Arrhythmia ranking in series [5] (rats, 40 mg/kg intravenously, within 30 min after coronary ligature, mean±SD, n=8) is on record as 1.38 ± 0.5. In [5] (rats, given intravenously), the “Effect on serum LDH and CK (in words)” value is on record as “more significant efficacy”. Further, the “Effect on severity of arrhythmia (in words)” value in series [5] (rats, given intravenously, after coronary ligature) is recorded as “more effective”. In addition, in series [5] (setting [13]), the “AKP (IU/L)” value worked out at 144 ± 19 IU/L. Further, in series [5] (setting [13]), the “CK (IU/L)” value is recorded as 2203 ± 530 IU/L. Also, the “LDH (IU/L)” value in series [5] (setting [13]) is 451 ± 78 IU/L. Moreover, the “Weight of platelet adhered on the silk” value in series [6] (rats, arteriovenous short, high dose) was 8.91 ± 1.34 mg; in series [6] (rats, arteriovenous short, low dose) it was 13.6 ± 1.89 mg; in [6] (rats, arteriovenous short, medium dose), 9.90 ± 1.53 mg. Further, the “Evans blue leached out from cerebral vessel (in words)” value in [7] (rats, intravenous once per day for 7 days, high and medium dose groups) was “very significant effect of reducing Evans blue being leached out from cerebral vessel”. For the same compound, the “Effect against platelet aggregation induced by ADP (in words)” value in [8] is “very good anti-platelet aggregation effect”. In series [9], the “Effect against platelet aggregation induced by PAF (in words)” value was “very good anti-platelet aggregation effect”. The “Area of cerebral infarction” value in [2] (rat, in vivo, iv) was 38.2% and 27.6% and 21.9%. The “Cerebral blood flow (in words)” value in series [10] (setting [14]) is given as “significantly increase blood flow”. Besides, the “Time for which blood flow was maintained” value in series [10] (setting [14]) was “about 15 min”. The “Dilation on cardiac vascular ring” value in series [11] (setting [15]) is 31.6%. Also, in series [12] (setting [15]), the “Dilation on cerebral vascular ring” value was 73.1%.

For the compound `O=C(/C=C/c1ccc(O)cc1)C1=C(O)C(O)(C2OC(CO)C(O)C(O)C2O)C([O][Ca][O]C2=C(C3OC(CO)C(O)C(O)C3O)C(=O)C(C(=O)/C=C/c3ccc(O)cc3)=C(O)C2(O)C2OC(CO)C(O)C(O)C2O)=C(C2OC(CO)C(O)C(O)C2O)C1=O` (centres unmarked) [Calcium hydroxysafflor yellow A], in [3] (high dose), the Survival duration was 37 min. Further, in series [3] (low dose), the Survival duration worked out at 35 min. Moreover, the Survival duration in series [3] (medium dose) is 38 min. Also, the “Blood viscosity effect compared with nimodipine positive control (in words)” value in [4] (in vivo) is “superior to the positive control group”. Moreover, in [4] (in vivo, iv), the “Blood viscosity, low shear, medium shear and high shear (in words)” value is on record as “decreased as dose increased”. Moreover, the “Extent of myocardial infarction compared to hydroxysafflor yellow for injection (in words)” value in series [5] (rat, in vivo) is “better efficacy in terms of reducing the extent of myocardial infarction”. In [5] (rat, in vivo, iv), the “Effect on serum LDH and CK (in words)” value is listed as “more significant efficacy”; the “Effect on severity of arrhythmia (in words)” value was “more effective”. In addition, in series [5] (rat, in vivo, iv, 40 mg/kg), the “AKP (IU/L)” value turned out to be 152 ± 24 IU/L, the Arrhythmia ranking is 1.46 ± 0.3, the “CK (IU/L)” value is 2139 ± 594 IU/L and the “Infarction area” value turned out to be 0.11 ± 0.04 g. For the same compound, in series [5] (rat, in vivo, iv, 40 mg/kg), the “Infarction rate (%)” value was 29 ± 6 % and the “LDH (IU/L)” value came out at 463 ± 65 IU/L. Besides, the “Weight of platelet adhered on the silk” value in series [6] (rat, in vivo) is 13.9 ± 1.54 mg and 10.26 ± 1.15 mg and 8.73 ± 1.79 mg. For the same compound, in series [7] (rat, in vivo, iv), the “Evans blue leached out from cerebral vessel (in words)” value is “very significant effect of reducing Evans blue being leached out from cerebral vessel”. Besides, the Total purity in series [1] (Accelerated 0 month) came to 1.2%. Besides, in [1] (Accelerated 1 month), the Total purity was 1.4% and the Content is reported as 95.6%. Further, in [1] (Accelerated 2 months), the Total purity is given as 1.9% and the Content is listed as 95.1%. Besides, in series [1] (Accelerated 3 months), the Total purity is 2.6% and the Content is given as 94.5%. Moreover, the “Area of cerebral infarction” value in series [2] (rat, in vivo, iv) is 41.3% and 25.7% and 21.6%. In [10] (dog, in vivo, iv), the “Cerebral blood flow (in words)” value is reported as “significantly increase blood flow” and the “Time for which blood flow was maintained” value was “about 15 min”. In [11], the “Dilation on cardiac vascular ring” value was 37.1%. Moreover, the “Dilation on cerebral vascular ring” value in series [12] was 69.7%.

The record behind these values is US9624254B2, “Hydroxysafflor yellow pharmaceutical salts” (ZHEJIANG YONGNING PHARMACEUTICAL CO LTD, priority 2013, dated 2017).
